From US4760078A, “Immunomodulator 1,2-dithiol-3-thione derivative composition, use method and process of producing the same” (priority 1986, dated 1988)
Like-named read-outs stand apart in the source and are kept apart here.

What was measured:
mouse spleen cells [1] = experiment: Action against blast formation reaction of mouse spleen cells (ConA-induced DNA synthesis, 3H-thymidine intake); type: cell-based, BALB/C mouse; conditions: Experiment 1, 10^-4 M, ConA 2 μg/ml, read-out: Activity (relative activity, 3H-thymidine intake, control = 100)
Procedure: Action Against Blast Formation Reaction of Mouse Spleen Cells The action of the compound of the present invention against the DNA synthesis of mouse spleen cells, which synthesis is induced by Concanavalin A (hereinafter referred to as ConA for short) was examined. 1×10^5 spleen cells of BALB/C mouse (female, 10 weeks old) were incubated with 2 μg/ml of ConA and 10^-6, 10^-5, or 10^-4 M of the compound of the present invention in RPMI 1640 medium containing 10% […] at 37° C. in an atmosphere containing 5% CO2 for 48 hours. Subsequently, ^3 H-thymidine was added to the culture and then the culture was incubated for another 18 hours. The incubated cells were collected with a harvester and the intake of ^3 H-thymidine by the cells was determined using a scintillation counter. The activity in the table is relative activity when the activity of the control is 100.

mouse spleen cells [2] = experiment: as above; type: cell-based, BALB/C mouse; conditions: ConA 2 μg/ml, read-out: Activity (relative activity, 3H-thymidine intake, control = 100)
immune system = conditions: published by the inventors, Pharmaceutical Society of Japan 1984; cited from earlier work
mice = experiment: Acute toxicity (oral); type: in vivo, ddY mice; conditions: 300 mg/kg, 6 mice per group
Text: Oral toxicity of the compound of the present invention was examined using mice.
The compound of the present invention was suspended in 0.5% solution of methyl cellulose and the suspension was orally administered to ddY mice (male, 7 weeks old, 6 mice per group). The conditions of the mice were observed and the number of deaths in 14 days from administration was checked.

[3] = tested on: spleen cells producing anti-SRBC antibody; experiment: Antibody production-promoting action (PFC number against SRBC, Jerne's method); type: in vivo, ICR mice; conditions: oral, twice (day of immunization and next day), 3 days after immunization
Procedure: Antibody Production-Promoting Action
The action of the compound of the present invention with respect to the antibody production of mouse against sheep red blood cells (SRBC) was examined.
To tail veins of ICR mice (female, 7 weeks old, 4 mice in each group), 5×10^7 SRBC were injected to immunize the mice. The compound of the present invention suspended in 0.5% methyl cellulose solution was orally administered twice to the mice on the day of immunization and on the next day. Three days after immunization, the number of spleen cells producing anti-SRBC antibody (PFC number) was checked by Jerne's method (Science Vol. 140, p. 405 (1963)).
In Table 2, the activity is the relative PFC number when the PFC number of the control is 100.

rat EAE = experiment: Action against experimental allergic encephalomyelitis (EAE) of rats; type: in vivo, Lewis rat; conditions: subcutaneous, 8 times; for Survival Rate: 50 days after inoculation, control 6/8; for Crisis Day (Mean): control 9.1 ± 0.6; for Clin. Score (Mean): score 0 to 5, control 1.0 ± 0.4, * p < 0.01
[4] = cited from earlier work

SMILES | activity at 100 µM (mouse spleen cells [1]) | activity at 10 µM (mouse spleen cells [2]; Experiment 1, 10^-5 M) | activity at 1 µM (mouse spleen cells [2]; Experiment 1, 10^-6 M) | activity at 10 µM (mouse spleen cells [2]; Experiment 2, 10^-5 M) | activity at 1 µM (mouse spleen cells [2]; Experiment 2, 10^-6 M) | Activity (relative PFC number, control = 100) ([3]; 0.4 mg/kg) | Activity (relative PFC number, control = 100) ([3]; 2.0 mg/kg) | also measured
O=C(O)CCCCC1CCSS1 (racemic) [Lipoic Acid, DL-thioctic acid, reference compound] | 234% | 146% | 142% | 159% | 95% |  |  | immunomodulating effect (immune system): excellent immunomodulating effect; number of deaths in 14 days from administration (mice): one mouse in 6 mice died
S=c1cc(C=CC=Cc2ccccc2)ss1 [Compound 1, 5-(4-phenyl-1,3-butadienyl)-1,2-dithiol-3-thione] | 196% | 281% | 250% |  |  | 258 | 149 | Survival Rate (rat EAE; 0.3 mg/kg/d): 8/8; Crisis Day (Mean) (rat EAE; 0.3 mg/kg/d): 10.5 ± 0.9; Clin. Score (Mean) (rat EAE; 0.3 mg/kg/d): 0.3 ± 0.1; Survival Rate (rat EAE; 3 mg/kg/d): 8/8; Crisis Day (Mean) (rat EAE; 3 mg/kg/d): 10.3 ± 0.7; Clin. Score (Mean) (rat EAE; 3 mg/kg/d): 0.2 ± 0.1
COc1ccc(C=CC=Cc2cc(=S)ss2)cc1 [Compound 3, 5-{4-(4-methoxyphenyl)-1,3-butadienyl}-1,2-dithiol-3-thione] | 291% | 338% | 175% |  |  | 117 | 186 | 
Cc1ccc(C=CC=Cc2cc(=S)ss2)cc1 [Compound 5, 5-{4-(p-toluyl)-1,3-butadienyl}-1,2-dithiol-3-thione] |  |  |  | 228% | 130% |  |  | 
c1ccc([C@H]2CN3CCSC3=N2)cc1 [levamisole] |  |  |  |  |  |  |  | side effects ([4]; clinical use, reported): vomiturition, eruption and hemotoxicity; most serious side effect ([4]; disappears upon stopping the administration): granulocytopenia
